According to patent US20090291857A1, “METHODS TO IDENTIFY INHIBITORS OF THE UNFOLDED PROTEIN RESPONSE” (THE BOARD OF TRUSTEES OF THE LELAND STANFORD JUNIOR …, priority 2006, published 2009):

Test system: XBP-1s (5X-UPRE)
Test: 5X-UPRE luciferase reporter assay
Assay type: cell-based, human
Method: HT1080 cells stably expressing the XBP-luciferase construct were grown in 60 mm dishes to 60-70% confluency. Following hypoxia treatment, cells were washed twice with PBS, lysed in 400 μl 1× reporter lysis buffer (RLB) (Promega, Madison Wis.) for 30 min at 24° C. Lysates (100 μl) were mixed with an equal volume of luciferase substrate (Promega), and assayed using a luminometer. For 5×-UPRE-luciferase reporter assays, cells were co-transfected with the appropriate reporter plasmid and a control plasmid (pSV40-beta-gal) using Lipofectamine 2000 (Invitrogen, San Diego, Calif.). Twenty-four hours after transfection, fresh media was added, and cells were treated with Tm or shifted to hypoxia. After treatment, cells were lysed in 1× RLB and analyzed for luciferase activity as described above. Beta-galactosidase activity was determined using the beta-galactosidase enzyme assay system (Promega).
A. XBP-luciferase reporter construct. […] After 24 hours, luciferase activity was analyzed in an automated plate reader. For each cell line, values are expressed as the percent inhibition of the median for Tm/Tg-treated wells, corrected for background. […] Values are expressed as the fold increases over uninduced levels. […] Cells were harvested, lysed, and analyzed by immunoblotting with antisera specific for HIF-1α (top), XBP-1s (middle) or actin (bottom). […]

With `Cc1csc(NC(=O)CSc2nc3c(c(C(F)(F)F)c2C#N)CCC3)n1` [Compound 9389] the “diminution of 5X-UPRE luciferase response under hypoxia” value (48 hours of hypoxia, vehicle 170-fold) was “more than 90%” and the “5X-UPRE luciferase induction over untreated cells” value (Tm plus irestatin, Tm alone ~12-fold) was under 4 fold.
